Consider one compound from article doi:10.1101/2022.09.03.506457v1 (biorxiv, 2022).

Structures are written as SMILES.

The experiment deals with T1, MjFH (MjFHαβ), holo, Fe-S reconstituted (Methanocaldococcus jannaschii, UniProt Q58034+Q58690).
T1 sequence (Q58690 1-285): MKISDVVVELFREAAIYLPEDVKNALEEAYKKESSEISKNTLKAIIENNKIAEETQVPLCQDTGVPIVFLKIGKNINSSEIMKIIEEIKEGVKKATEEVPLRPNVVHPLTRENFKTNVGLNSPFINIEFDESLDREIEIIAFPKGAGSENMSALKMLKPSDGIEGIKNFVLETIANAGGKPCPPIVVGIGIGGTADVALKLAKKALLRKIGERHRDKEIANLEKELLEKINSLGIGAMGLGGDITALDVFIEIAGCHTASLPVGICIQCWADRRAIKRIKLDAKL
T1 sequence (Q58034 1-195): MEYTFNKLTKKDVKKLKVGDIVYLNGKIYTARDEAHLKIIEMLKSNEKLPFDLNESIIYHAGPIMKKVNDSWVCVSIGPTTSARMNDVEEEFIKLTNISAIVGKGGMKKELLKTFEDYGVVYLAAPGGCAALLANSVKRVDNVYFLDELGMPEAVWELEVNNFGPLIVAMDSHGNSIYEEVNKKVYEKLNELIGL
The format is biochemical. To be noted: pH 7.2, 50 mM Tris-HCl, 70 °C.

With `O=C(O)/C=C/C(=O)O` [fumarate], the Michaelis constant (Km) (in general, the concentration of substrate that gives half-maximal velocity) was 2790 ± 397 µM.
